Measured values as given in ChEMBL document CHEMBL2040724, “New synthesis and promising neuroprotective role in experimental ischemic stroke of ONO-1714” (Eur J Med Chem, 2012).
Activity calls are given as the source filed them. The rule behind the calls is not given here.

Key:
Mus musculus = test: Neuroprotective activity in permanent middle cerebral artery occlusion model of CD-1 mouse brain assessed as reduction of infarct volume administered subcutaneously by using Alzet mini-osmotic pumps for 21 days before and 48 hrs after pMCAO by TTC staining; format: functional, organism-based
[1] = tested on: Peritoneal macrophage cell; test: Inhibition of LPS/INFgamma-induced nitric oxide production in CD-1 mouse peritoneal macrophages after 48 hrs by Griess reaction; conditions: CD-1, Peritoneal macrophage cell
[2] = Cytotoxicity against CD-1 mouse peritoneal macrophages assessed as survival rate at 10 uM after 48 hrs by SRB assay; format: cell-based, Peritoneal macrophage cell; conditions: read-out: Activity
[3] = target: Nitric oxide synthase, inducible (Rattus norvegicus, UniProt Q06518); test: Inhibition of rat iNOS
Nitric oxide synthase, inducible (Rattus norvegicus, UniProt Q06518), sequence (Q06518 whole entry): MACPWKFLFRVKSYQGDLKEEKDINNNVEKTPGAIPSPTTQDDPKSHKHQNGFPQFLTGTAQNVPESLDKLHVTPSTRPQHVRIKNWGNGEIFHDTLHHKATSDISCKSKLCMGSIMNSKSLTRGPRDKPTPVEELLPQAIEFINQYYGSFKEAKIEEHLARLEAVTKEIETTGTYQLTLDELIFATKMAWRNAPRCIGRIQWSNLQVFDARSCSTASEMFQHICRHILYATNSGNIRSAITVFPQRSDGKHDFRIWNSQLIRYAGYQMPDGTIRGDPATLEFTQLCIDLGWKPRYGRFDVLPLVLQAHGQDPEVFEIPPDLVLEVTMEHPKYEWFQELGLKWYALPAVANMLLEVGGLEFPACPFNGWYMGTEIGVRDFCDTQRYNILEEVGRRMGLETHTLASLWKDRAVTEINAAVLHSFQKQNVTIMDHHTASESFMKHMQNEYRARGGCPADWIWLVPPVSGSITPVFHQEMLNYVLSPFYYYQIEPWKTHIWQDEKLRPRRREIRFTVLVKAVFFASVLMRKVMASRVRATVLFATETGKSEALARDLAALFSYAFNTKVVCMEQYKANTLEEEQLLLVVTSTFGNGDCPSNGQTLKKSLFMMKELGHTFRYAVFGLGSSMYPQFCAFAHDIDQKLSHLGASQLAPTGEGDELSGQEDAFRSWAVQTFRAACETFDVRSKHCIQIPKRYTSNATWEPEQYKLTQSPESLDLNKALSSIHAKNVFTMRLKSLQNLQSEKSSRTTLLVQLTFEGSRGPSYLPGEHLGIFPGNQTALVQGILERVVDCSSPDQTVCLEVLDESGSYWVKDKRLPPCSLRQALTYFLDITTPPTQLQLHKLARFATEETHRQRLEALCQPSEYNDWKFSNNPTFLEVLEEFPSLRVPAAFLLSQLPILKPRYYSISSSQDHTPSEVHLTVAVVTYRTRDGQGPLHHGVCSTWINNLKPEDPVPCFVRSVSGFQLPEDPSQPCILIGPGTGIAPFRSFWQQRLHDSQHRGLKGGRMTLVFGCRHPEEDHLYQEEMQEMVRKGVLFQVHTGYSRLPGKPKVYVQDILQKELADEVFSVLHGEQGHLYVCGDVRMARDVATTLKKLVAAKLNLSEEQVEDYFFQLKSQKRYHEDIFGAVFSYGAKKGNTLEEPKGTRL

[4] = target: T1, Nitric oxide synthase, inducible (Mus musculus, UniProt P29477); test: Inhibition of mouse recombinant iNOS activity assessed as conversion of [14C]-L-arginine to [14C]-L-citrulline by liquid scintillation counting
T1 sequence (P29477 whole entry): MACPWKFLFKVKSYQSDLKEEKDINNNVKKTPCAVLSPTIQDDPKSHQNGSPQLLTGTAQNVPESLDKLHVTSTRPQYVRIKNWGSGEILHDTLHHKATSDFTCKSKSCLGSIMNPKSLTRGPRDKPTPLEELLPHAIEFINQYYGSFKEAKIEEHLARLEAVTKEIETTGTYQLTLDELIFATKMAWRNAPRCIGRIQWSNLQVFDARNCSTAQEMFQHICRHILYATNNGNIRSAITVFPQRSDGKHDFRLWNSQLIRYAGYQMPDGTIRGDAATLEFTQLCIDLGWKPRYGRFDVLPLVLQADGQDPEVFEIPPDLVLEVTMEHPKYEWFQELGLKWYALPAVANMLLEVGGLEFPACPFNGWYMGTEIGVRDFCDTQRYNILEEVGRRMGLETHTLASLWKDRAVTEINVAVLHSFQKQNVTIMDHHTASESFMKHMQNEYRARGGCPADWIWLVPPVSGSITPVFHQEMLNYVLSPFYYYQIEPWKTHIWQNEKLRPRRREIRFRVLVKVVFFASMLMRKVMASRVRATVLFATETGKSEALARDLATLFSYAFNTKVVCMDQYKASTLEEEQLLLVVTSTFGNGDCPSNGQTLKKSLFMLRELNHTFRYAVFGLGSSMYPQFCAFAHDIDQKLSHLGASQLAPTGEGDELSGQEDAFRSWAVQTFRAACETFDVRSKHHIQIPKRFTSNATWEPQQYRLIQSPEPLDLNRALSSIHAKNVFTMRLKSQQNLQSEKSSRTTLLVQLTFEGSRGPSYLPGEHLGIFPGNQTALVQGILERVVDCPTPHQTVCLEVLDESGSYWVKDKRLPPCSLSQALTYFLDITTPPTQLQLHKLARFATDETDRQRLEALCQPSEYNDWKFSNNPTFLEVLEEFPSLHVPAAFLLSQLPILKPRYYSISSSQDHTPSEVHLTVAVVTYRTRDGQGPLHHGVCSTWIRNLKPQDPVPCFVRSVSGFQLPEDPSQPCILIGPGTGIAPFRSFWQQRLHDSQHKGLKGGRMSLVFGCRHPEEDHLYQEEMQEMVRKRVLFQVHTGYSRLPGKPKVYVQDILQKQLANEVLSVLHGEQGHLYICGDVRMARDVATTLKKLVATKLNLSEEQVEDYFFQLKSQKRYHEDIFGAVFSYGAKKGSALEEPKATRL

[5] = Cytotoxicity against CD-1 mouse peritoneal macrophages assessed as survival rate at 1 uM after 48 hrs by SRB assay; format: cell-based, Peritoneal macrophage cell; conditions: read-out: Activity
[6] = Cytotoxicity against CD-1 mouse peritoneal macrophages assessed as survival rate at 0.1 uM after 48 hrs by SRB assay; format: cell-based, Peritoneal macrophage cell; conditions: read-out: Activity
[7] = target: Nitric oxide synthase, inducible (Homo sapiens, UniProt P35228); test: Inhibition of human iNOS
Nitric oxide synthase, inducible (Homo sapiens, UniProt P35228), sequence (P35228 whole entry): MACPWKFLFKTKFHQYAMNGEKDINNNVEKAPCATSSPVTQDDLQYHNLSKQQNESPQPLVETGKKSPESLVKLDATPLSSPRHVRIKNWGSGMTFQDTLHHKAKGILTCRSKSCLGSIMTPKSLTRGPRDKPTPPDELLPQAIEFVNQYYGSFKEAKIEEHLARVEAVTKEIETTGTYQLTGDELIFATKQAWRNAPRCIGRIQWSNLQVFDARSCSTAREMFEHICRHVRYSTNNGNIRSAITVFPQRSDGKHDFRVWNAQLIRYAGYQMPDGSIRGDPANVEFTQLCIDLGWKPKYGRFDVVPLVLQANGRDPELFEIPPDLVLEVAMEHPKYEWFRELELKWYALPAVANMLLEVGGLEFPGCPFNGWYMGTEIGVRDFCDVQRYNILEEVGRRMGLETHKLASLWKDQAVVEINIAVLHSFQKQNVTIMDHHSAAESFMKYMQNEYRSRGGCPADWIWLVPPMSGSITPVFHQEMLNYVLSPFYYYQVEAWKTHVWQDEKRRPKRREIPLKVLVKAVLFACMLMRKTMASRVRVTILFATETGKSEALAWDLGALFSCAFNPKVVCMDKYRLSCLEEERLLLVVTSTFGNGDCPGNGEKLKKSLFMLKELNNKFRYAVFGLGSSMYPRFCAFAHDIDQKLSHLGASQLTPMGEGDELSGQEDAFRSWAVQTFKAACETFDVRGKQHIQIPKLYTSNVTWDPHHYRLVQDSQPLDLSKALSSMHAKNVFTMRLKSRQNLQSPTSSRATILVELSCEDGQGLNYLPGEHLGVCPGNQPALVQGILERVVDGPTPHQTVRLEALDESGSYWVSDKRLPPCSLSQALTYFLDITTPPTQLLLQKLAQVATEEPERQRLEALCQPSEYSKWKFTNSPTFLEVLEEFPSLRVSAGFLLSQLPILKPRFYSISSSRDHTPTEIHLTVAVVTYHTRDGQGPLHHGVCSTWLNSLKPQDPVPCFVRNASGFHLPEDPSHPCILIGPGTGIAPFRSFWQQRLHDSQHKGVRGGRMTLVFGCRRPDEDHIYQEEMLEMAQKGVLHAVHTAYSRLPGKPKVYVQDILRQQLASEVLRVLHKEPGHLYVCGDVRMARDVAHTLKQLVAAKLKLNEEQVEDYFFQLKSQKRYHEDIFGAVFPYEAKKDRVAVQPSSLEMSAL

[8] = Cytotoxicity against CD-1 mouse peritoneal macrophages assessed as survival rate at 100 uM after 48 hrs by SRB assay; format: cell-based, Peritoneal macrophage cell; conditions: read-out: Activity

SMILES	Activity (Mus musculus)	IC50 [1] [nM]	viability at 48 h, 10 µM [2] [%]	Ki [3] [nM]	IC50 [4] [nM]	viability at 48 h, 1 µM [5] [%]	viability at 48 h, 0.1 µM [6] [%]	Ki [7] [nM]	viability at 48 h, 100 µM [8] [%]
C[C@H]1CC(N)=N[C@@H]2[C@H](Cl)[C@@H]21	Active	820							
C[C@H]1CC(=N)N[C@@H]2[C@H](Cl)[C@@H]21			99.1	1.8	11	93.6	98.4	1.8	97.2
